Results from patent US11191271B2, “Active compound combinations having insecticidal/acaricidal properties” (priority 2017, dated 2021).

Columns and labels:
Assay type in all cases: in vivo
[1] = test system: cotton aphid (Aphis gossypii); assay: Aphis gossypii - spray test; conditions: for Efficacy in % after 1 day: mortality after 1 day, cotton leaves; for Efficacy in % after 6 days: mortality after 6 days
Experimental: (§1) Formula for the Efficacy of the Combination of Two Compounds • The expected efficacy of a given combination of two compounds is calculated as follows (see Colby, S. R., “Calculating Synergistic and antagonistic Responses of Herbicide Combinations”, Weeds 15, pp. 20-22, 1967): • If • X is the efficacy expressed in % mortality of the untreated control for test compound A at a concentration of m ppm respectively m g/ha, • Y is the efficacy expressed in % mortality of the untreated control for test compound B at a concentration of n ppm respectively n g/ha, • E is the efficacy expressed in % mortality of the untreated control using the mixture of A and B at m and n ppm respectively m and n g/ha, • then is
(§2) [formula] • If the observed insecticidal efficacy of the combination is higher than the one calculated as “E”, then the combination of the two compounds is more than additive, i.e. there is a synergistic effect.
Aphis gossypii—Spray Test
(§3) Solvent: 7 parts by weight of dimethylformamide
(§4) Emulsifier: alkylaryl polyglycol ether
(§5) To produce a suitable preparation of active compound, 1 part by weight of active compound is mixed with the stated amount of solvent and is diluted with water, containing an emulsifier concentration of 1000 ppm, to the desired concentration. Further test concentrations are prepared by dilution with emulsifier containing water.
Cotton leaves (Gossypium hirsutum) which are heavily infested with the cotton aphid (Aphis gossypii) are treated by being sprayed with the preparation of the active compound of the desired concentration.
After the specified period of time the mortality in % is determined. 100% means all the aphids have been killed; 0% means none of the aphids have been killed. The mortality values determined thus are recalculated using the Colby-formula (see above).

[2] = test system: two spotted spidermite (Tetranychus urticae); assay: Tetranychus urticae - spray test OP-resistant; conditions: for Efficacy in % after 2 days: mortality after 2 days; for Efficacy in % after 6 days: mortality after 6 days
Experimental: as §1, §2
Tetranychus urticae—Spray Test OP-Resistant
as §5, with “solvents” for “solvent”
French bean (Phaseolus vulgaris) leaf disks infected with all instars of the two spotted spidermite (Tetranychus urticae), are sprayed with a preparation of the active ingredient of the desired concentration.
After the specified period of time, mortality in % is determined. 100% means all spider mites have been killed and 0% means none of the spider mites have been killed. The mortality values determined thus are recalculated using the Colby-formula (see above).

[3] = test system: caterpillars of the fall army worm (Spodoptera frugiperda); assay: Spodoptera frugiperda - spray test; conditions: for Efficacy in % after 2 days: mortality after 2 days; for Efficacy in % after 3 days: mortality after 3 days; for Efficacy in % after 6 days: mortality after 6 days; for Efficacy in % after 1 day: mortality after 1 day
Experimental: as §1, §2
Spodoptera frugiperda—Spray Test
as §3, §4, §5
Cotton leaves (Gossypium hirsutum) are treated by being sprayed with the preparation of the active compound of the desired concentration and are infested with caterpillars of the fall army worm (Spodoptera frugiperda).
After the specified period of time mortality in % is determined. 100% means all the caterpillars have been killed and 0% means none of the caterpillars have been killed. The mortality values determined thus are recalculated using the Colby-formula (see above).

For `CNC(=O)c1cc(Cl)cc(C)c1NC(=O)c1cc(Br)nn1-c1ncccc1Cl` [Chlorantraniliprole, 3-bromo-4′-chloro-1-(3-chloro-2-pyridyl)-2′-methyl-6′-(methylcarbamoyl)pyrazole-5-carboxanilide], the “Efficacy in % after 1 day” value ([1]; 8 ppm) was 10%, the “Efficacy in % after 6 days” value ([1]; 8 ppm) was 45% and the “Efficacy in % after 2 days” value ([2]; 0.2 g ai/ha) was 0%. For the same compound, the “Efficacy in % after 2 days” value ([2]; 0.8 g ai/ha) was 0% and the “Efficacy in % after 2 days” value ([2]; 3.2 g ai/ha) was 0%.
`CNC(=O)c1cc(C#N)cc(C)c1NC(=O)c1cc(Br)nn1-c1ncccc1Cl` [Cyantraniliprole, 3-bromo-1-(3-chloro-2-pyridyl)-4′-cyano-2′-methyl-6′-(methylcarbamoyl)pyrazole-5-carboxanilide] was tested, and the “Efficacy in % after 2 days” value ([2]; 0.2 g ai/ha) was 0%, the “Efficacy in % after 2 days” value ([2]; 0.8 g ai/ha) was 0% and the “Efficacy in % after 2 days” value ([2]; 3.2 g ai/ha) was 0%. The “Efficacy in % after 2 days” value ([3]; 0.12 ppm) was 0%, the “Efficacy in % after 3 days” value ([3]; 0.12 ppm) was 0% and the “Efficacy in % after 6 days” value ([3]; 0.12 ppm) was 10%. For the same compound, the “Efficacy in % after 1 day” value ([3]; 0.24 ppm) was 0%, the “Efficacy in % after 2 days” value ([3]; 0.24 ppm) was 0% and the “Efficacy in % after 3 days” value ([3]; 0.24 ppm) was 10%. For the same compound, the “Efficacy in % after 6 days” value ([3]; 0.24 ppm) was 20%, the “Efficacy in % after 3 days” value ([3]; 0.48 ppm) was 60% and the “Efficacy in % after 6 days” value ([3]; 0.48 ppm) was 70%.
In the case of `Cc1cc(F)c(N=C2SCC(=O)N2CC(F)(F)F)cc1[S+]([O-])CC(F)(F)F` (stereo not shown) [Cpd of formula (I)], the “Efficacy in % after 6 days” value ([1]; 0.8 ppm) is reported as 0%, the “Efficacy in % after 1 day” value ([1]; 1.6 ppm) is reported as 0% and the “Efficacy in % after 6 days” value ([1]; 1.6 ppm) is reported as 0%. For the same compound, the “Efficacy in % after 6 days” value ([2]; 0.1 g ai/ha) was 0%, the “Efficacy in % after 2 days” value ([2]; 0.4 g ai/ha) was 0% and the “Efficacy in % after 2 days” value ([2]; 1.6 g ai/ha) was 0%. The “Efficacy in % after 2 days” value ([2]; 6.4 g ai/ha) was 0%, the “Efficacy in % after 1 day” value ([3]; 0.3 ppm) was 0% and the “Efficacy in % after 2 days” value ([3]; 0.3 ppm) was 0%. For the same compound, the “Efficacy in % after 3 days” value ([3]; 0.3 ppm) was 0%, the “Efficacy in % after 6 days” value ([3]; 0.3 ppm) was 0% and the “Efficacy in % after 1 day” value ([3]; 0.6 ppm) was 0%. The “Efficacy in % after 2 days” value ([3]; 0.6 ppm) was 0%, the “Efficacy in % after 3 days” value ([3]; 0.6 ppm) was 0% and the “Efficacy in % after 6 days” value ([3]; 0.6 ppm) was 0%. For the same compound, the “Efficacy in % after 1 day” value ([3]; 1.2 ppm) was 0%, the “Efficacy in % after 3 days” value ([3]; 1.2 ppm) was 0% and the “Efficacy in % after 6 days” value ([3]; 1.2 ppm) was 0%.
With `CNC(=O)c1cc(C#N)cc(C)c1NC(=O)c1cc(Cn2nnc(C(F)(F)F)n2)nn1-c1ncccc1Cl` [Tetraniliprole, 1-(3-chloro-2-pyridyl)-4′-cyano-2′-methyl-6′-methylcarbamoyl-3-{[5-(trifluoromethyl)-2H-tetrazol-2-yl]methyl}pyrazole-5-carboxanilide] the “Efficacy in % after 6 days” value ([2]; 0.05 g ai/ha) was 0%, the “Efficacy in % after 2 days” value ([2]; 0.2 g ai/ha) was 0% and the “Efficacy in % after 2 days” value ([2]; 0.8 g ai/ha) was 0%. For the same compound, the “Efficacy in % after 2 days” value ([2]; 3.2 g ai/ha) was 0%, the “Efficacy in % after 1 day” value ([3]; 0.06 ppm) was 0% and the “Efficacy in % after 2 days” value ([3]; 0.06 ppm) was 60%. For the same compound, the “Efficacy in % after 1 day” value ([3]; 0.12 ppm) was 30% and the “Efficacy in % after 1 day” value ([3]; 0.24 ppm) was 40%.
